Measured values taken from patent US20020198510A1, “Method for nasal application of a medicinal substance” (priority 2001, published 2002).
“Also recorded” adds a separate entry of the source. Like-named read-outs stand apart in the source and are kept apart here.

How the values were obtained:
[1] = Evans Blue Dye distribution after administration into the nose of mice; assay type: in vivo; parameters: key to Dye in Stomach / Dye in Lung: -: no dye is present; traces: minimal amounts are present when examined with the unaided eye but that do not clearly show on photographs; yes: dye is clearly visible; +: dye is clearly visible; ++: heavy dye presence; settings: for Dye in Larynx / Dye in Nasal Cavity / Dye in Nose Skin / Dye in Intestine / Dye in Oral Cavity / Dye in Stomach / Dye in Esophagus Lower / Dye in Esophagus Upper / Dye in Trachea Lower / Dye in Trachea Upper / Dye in Lung: 60 min to sacrifice
Experimental: (§1) To show the distribution of liquid administered through the nose, Evans Blue Dye (0.3%) was administered through a micropipette tip into the nose of mice and chinchillas at various doses, at various levels of sedation or anesthesia, and with the animals in various positions.

[2] = parameters: species or system chinchillas; settings: in vivo
Experimental: as §1

[3] = Dye 10 μl single dose, Supine/Supine, anesthesia 200 μl (heavy)
[4] = Dye 10 μl single dose, Upright/Not held, 0 μl (Alert)
[5] = Dye 10 μl single dose, Upright/Not held, anesthesia 200 μl (heavy)
[6] = Dye 20 μl single dose, Supine/Supine, anesthesia 200 μl (heavy)
[7] = Dye 20 μl single dose, Upright/Not held, anesthesia 200 μl (heavy)
[8] = Dye 20 μl, 2 μl/nare at 2 min interval, Supine/Supine, anesthesia 200 μl (heavy)
[9] = Dye 20 μl, 2 μl/nare at 5 min interval, Supine/Supine, anesthesia 200 μl (heavy)
[10] = Dye 20 μl, 2 μl/nare at t = 0, 2, 7, 9 and 11 min, Supine/Supine, anesthesia 200 μl (heavy)
[11] = Dye 30 μl single dose, Prone/Not held, 0 μl (Alert)
[12] = Dye 30 μl single dose, Supine/Supine, anesthesia 200 μl (heavy)
[13] = Dye 30 μl single dose, Upright/Not held, 0 μl (Alert)
[14] = Dye 30 μl single dose, Upright/Not held, anesthesia 120 μl (Mod)
[15] = Dye 30 μl single dose, Upright/Not held, anesthesia 200 μl (heavy)
[16] = Dye 30 μl, 1 drop/5 sec interval, Upright/Not held, anesthesia 200 μl (heavy)
[17] = Dye 30 μl, 2 μl/nare at 5 min interval, Supine/Supine, anesthesia 200 μl (Mod*)
[18] = Dye 30 μl, 2 μl/nare at 5 min interval, Supine/Supine, anesthesia 200 μl (heavy)
[19] = Dye 30 μl, 2 μl/nare at 5 min interval, Supine/Supine, anesthesia 350 μl (heavy)
[20] = Dye 30 μl, 2 μl/nare at 5 min interval, Supine/Supine, anesthesia 400 μl (heavy)
[21] = Dye 30 μl, 5 μl/nare at 10 min interval, Supine/Supine, anesthesia 200 μl (heavy)
[22] = Dye 40 μl single dose, Upright/Not held, anesthesia 200 μl (heavy)
[23] = Dye 40 μl, 2 μl/nare at 5 min interval, Supine/Supine, anesthesia 200 μl (heavy)
[24] = Dye 50 μl single dose, Upright/Not held, 0 μl (Alert)
[25] = Dye 50 μl single dose, Upright/Not held, anesthesia 120 μl (Mod)
[26] = Dye 50 μl single dose, Upright/Not held, anesthesia 200 μl (heavy)
[27] = Dye 50 μl, 5 μl/nare at 30 sec interval, Upright/Not held, anesthesia 120 μl (Mod)

- Dye in Larynx [1, 3]: Yes
- Dye in Nasal Cavity [1, 3]: Yes
- Dye in Nose Skin [1, 3]: Yes
- Dye in Intestine [1, 4]: Yes
- Dye in Larynx [1, 4]: Yes
- Dye in Nasal Cavity [1, 4]: Yes
- Dye in Oral Cavity [1, 4]: Yes
- Dye in Stomach [1, 4]: + and Traces
- Dye in Esophagus Lower [1, 5]: Traces; also recorded: Yes/Yes
- Dye in Esophagus Upper [1, 5]: Traces/; also recorded: Yes/Yes
- Dye in Larynx [1, 5]: Yes
- Dye in Nasal Cavity [1, 5]: Yes
- Dye in Nose Skin [1, 5]: Yes
- Dye in Oral Cavity [1, 5]: Yes
- Dye in Stomach [1, 5]: Traces and +
- Dye in Trachea Lower [1, 5]: Traces
- Dye in Trachea Upper [1, 5]: Traces/
- Dye in Esophagus Upper [1, 6]: Traces
- Dye in Larynx [1, 6]: Yes
- Dye in Nasal Cavity [1, 6]: Yes
- Dye in Nose Skin [1, 6]: Yes
- Dye in Oral Cavity [1, 6]: Yes
- Dye in Trachea Lower [1, 6]: Traces
- Dye in Trachea Upper [1, 6]: Traces/
- Dye in Esophagus Lower [1, 7]: Yes/Yes
- Dye in Esophagus Upper [1, 7]: Yes/Yes
- Dye in Larynx [1, 7]: Yes
- Dye in Nasal Cavity [1, 7]: Yes
- Dye in Nose Skin [1, 7]: Yes
- Dye in Oral Cavity [1, 7]: Yes
- Dye in Stomach [1, 7]: +
- Dye in Esophagus Lower [1, 8]: Yes/Yes
- Dye in Esophagus Upper [1, 8]: Yes/Yes
- Dye in Larynx [1, 8]: Yes
- Dye in Nasal Cavity [1, 8]: Yes
- Dye in Nose Skin [1, 8]: Yes
- Dye in Oral Cavity [1, 8]: Yes
- Dye in Stomach [1, 8]: +
- Dye in Esophagus Upper [1, 9]: Yes
- Dye in Larynx [1, 9]: Yes
- Dye in Nasal Cavity [1, 9]: Yes
- Dye in Nose Skin [1, 9]: Yes
- Dye in Oral Cavity [1, 9]: Yes
- Dye in Larynx [1, 10]: Yes
- Dye in Nasal Cavity [1, 10]: Yes
- Dye in Nose Skin [1, 10]: Yes
- Dye in Intestine [1, 11]: Yes
- Dye in Larynx [1, 11]: Traces
- Dye in Nasal Cavity [1, 11]: Yes
- Dye in Oral Cavity [1, 11]: Traces
- Dye in Stomach [1, 11]: ++ and +
- Dye in Esophagus Lower [1, 12]: Yes/Yes
- Dye in Esophagus Upper [1, 12]: Yes/Yes
- Dye in Larynx [1, 12]: Yes
- Dye in Nasal Cavity [1, 12]: Yes
- Dye in Nose Skin [1, 12]: Yes
- Dye in Oral Cavity [1, 12]: Yes
- Dye in Trachea Lower [1, 12]: Yes/Yes
- Dye in Trachea Upper [1, 12]: Yes/Yes
- Dye in Intestine [1, 13]: Yes
- Dye in Larynx [1, 13]: Yes
- Dye in Nasal Cavity [1, 13]: Yes
- Dye in Nose Skin [1, 13]: Yes
- Dye in Oral Cavity [1, 13]: Yes
- Dye in Stomach [1, 13]: ++ and +
- Dye in Esophagus Lower [1, 14]: Yes/Yes
- Dye in Esophagus Upper [1, 14]: Yes/Yes
- Dye in Larynx [1, 14]: Yes
- Dye in Lung [1, 14]: Traces
- Dye in Nasal Cavity [1, 14]: Yes
- Dye in Nose Skin [1, 14]: Yes
- Dye in Oral Cavity [1, 14]: Yes
- Dye in Stomach [1, 14]: ++ and +
- Dye in Trachea Lower [1, 14]: Yes/Yes
- Dye in Trachea Upper [1, 14]: Yes/Yes
- Dye in Esophagus Lower [1, 15]: Yes/Yes
- Dye in Esophagus Upper [1, 15]: Yes/Yes
- Dye in Larynx [1, 15]: Yes
- Dye in Lung [1, 15]: +
- Dye in Nasal Cavity [1, 15]: Yes
- Dye in Nose Skin [1, 15]: Yes
- Dye in Oral Cavity [1, 15]: Yes
- Dye in Trachea Lower [1, 15]: Yes/Yes
- Dye in Trachea Upper [1, 15]: Yes/Yes
- Dye in Esophagus Lower [1, 16]: Yes/Yes
- Dye in Esophagus Upper [1, 16]: Yes/Yes
- Dye in Larynx [1, 16]: Yes
- Dye in Nasal Cavity [1, 16]: Yes
- Dye in Nose Skin [1, 16]: Yes
- Dye in Oral Cavity [1, 16]: Yes
- Dye in Stomach [1, 16]: +
- Dye in Esophagus Lower [1, 17]: Yes/Yes
- Dye in Esophagus Upper [1, 17]: Yes/Yes
- Dye in Larynx [1, 17]: Yes
- Dye in Nasal Cavity [1, 17]: Yes
- Dye in Nose Skin [1, 17]: Yes
- Dye in Oral Cavity [1, 17]: Yes
- Dye in Stomach [1, 17]: +
- Dye in Esophagus Upper [1, 18]: Traces
- Dye in Larynx [1, 18]: Yes
- Dye in Nasal Cavity [1, 18]: Yes
- Dye in Nose Skin [1, 18]: Yes
- Dye in Oral Cavity [1, 18]: Yes
- Dye in Esophagus Upper [1, 19]: Traces
- Dye in Larynx [1, 19]: Yes
- Dye in Nasal Cavity [1, 19]: Yes
- Dye in Nose Skin [1, 19]: Yes
- Dye in Oral Cavity [1, 19]: Yes
- Dye in Trachea Upper [1, 19]: Traces
- Dye in Larynx [1, 20]: Yes
- Dye in Nasal Cavity [1, 20]: Yes
- Dye in Nose Skin [1, 20]: Yes
- Dye in Oral Cavity [1, 20]: Yes
- Dye in Esophagus Lower [1, 21]: Yes/Yes
- Dye in Esophagus Upper [1, 21]: Yes/Yes
- Dye in Larynx [1, 21]: Yes
- Dye in Lung [1, 21]: + and Traces
- Dye in Nasal Cavity [1, 21]: Yes
- Dye in Nose Skin [1, 21]: Yes
- Dye in Stomach [1, 21]: +
- Dye in Trachea Lower [1, 21]: Yes/Yes
- Dye in Trachea Upper [1, 21]: Yes/Yes
- Dye in Esophagus Lower [1, 22]: Yes/Yes
- Dye in Esophagus Upper [1, 22]: Yes/Yes
- Dye in Intestine [1, 22]: Yes
- Dye in Larynx [1, 22]: Yes
- Dye in Lung [1, 22]: +
- Dye in Nasal Cavity [1, 22]: Yes
- Dye in Nose Skin [1, 22]: Yes
- Dye in Oral Cavity [1, 22]: Yes
- Dye in Stomach [1, 22]: +
- Dye in Trachea Lower [1, 22]: Yes/Yes
- Dye in Trachea Upper [1, 22]: Yes/Yes
- Dye in Esophagus Lower [1, 23]: Yes/Yes
- Dye in Esophagus Upper [1, 23]: Yes/Yes
- Dye in Larynx [1, 23]: Yes
- Dye in Nasal Cavity [1, 23]: Yes
- Dye in Nose Skin [1, 23]: Yes
- Dye in Oral Cavity [1, 23]: Yes
- Dye in Stomach [1, 23]: ++
- Dye in Esophagus Lower [1, 24]: Traces
- Dye in Esophagus Upper [1, 24]: Traces/
- Dye in Intestine [1, 24]: Yes
- Dye in Larynx [1, 24]: Yes
- Dye in Nasal Cavity [1, 24]: Yes
- Dye in Nose Skin [1, 24]: Yes
- Dye in Oral Cavity [1, 24]: Yes
- Dye in Stomach [1, 24]: ++ and +
- Dye in Esophagus Lower [1, 25]: Yes/Yes
- Dye in Esophagus Upper [1, 25]: Yes/Yes
- Dye in Larynx [1, 25]: Yes
- Dye in Nasal Cavity [1, 25]: Yes
- Dye in Nose Skin [1, 25]: Yes
- Dye in Oral Cavity [1, 25]: Yes
- Dye in Stomach [1, 25]: ++
- Dye in Trachea Lower [1, 25]: Yes/Yes; also recorded: Traces
- Dye in Trachea Upper [1, 25]: Yes/Yes and Yes/
- Dye in Esophagus Lower [1, 26]: Yes/Yes
- Dye in Esophagus Upper [1, 26]: Yes/Yes
- Dye in Larynx [1, 26]: Yes
- Dye in Lung [1, 26]: + and ++
- Dye in Nasal Cavity [1, 26]: Yes
- Dye in Nose Skin [1, 26]: Yes
- Dye in Oral Cavity [1, 26]: Yes
- Dye in Stomach [1, 26]: +
- Dye in Trachea Lower [1, 26]: Yes/Yes
- Dye in Trachea Upper [1, 26]: Yes/Yes
- Dye in Esophagus Lower [1, 27]: Yes/Yes
- Dye in Esophagus Upper [1, 27]: Yes/Yes
- Dye in Larynx [1, 27]: Yes
- Dye in Nasal Cavity [1, 27]: Yes
- Dye in Nose Skin [1, 27]: Yes
- Dye in Oral Cavity [1, 27]: Yes
- Dye in Stomach [1, 27]: +
- Dye retention in nasal passages and sinuses by position ([1]; mice, prone versus supine position): the converse is true for mice
- Dye retention in nasal passages and sinuses by alertness ([1]; mouse, alert versus anesthetized): an anesthetized state is preferred
SMILES: Cc1cc(-c2ccc(/N=N/c3ccc4c(S(=O)(=O)[O-])cc(S(=O)(=O)[O-])c(N)c4c3O)c(C)c2)ccc1/N=N/c1ccc2c(S(=O)(=O)[O-])cc(S(=O)(=O)[O-])c(N)c2c1O.[Na+].[Na+].[Na+].[Na+] [Dye, Evans Blue Dye]
- Dye in the stomach ([1]; 5 μl and 2 μl increments (Table 8)): reduced dye in the stomach at lower incremental doses than larger incremental doses
- Dye reaching stomach and esophagus ([1]; optimal divided dose conditions for the mouse (Table 9)): essentially no dye reached the stomach and very little dye reached the esophagus
- Dye retention in nasal passages and sinus cavities ([1]; series of low doses versus a single larger dose): more material can be retained in the nasal passages and sinus cavities than when a single larger dose is used
- Dye retention in nasal passages and sinuses versus loss ([1]; when a lower dose is used): more dye is retained in the nasal passages and sinuses and less dye is lost to the esophagus, stomach, intestines and lungs
- Dye retention in nasal passages and sinuses by alertness [2]: more dye is retained in the nasal passages and sinuses when administered to an alert chinchilla
- Dye retention in nasal passages and sinuses by position [2]: more dye is retained in the nasal passages and sinuses in the chinchilla, when the dye is administered in the prone position than when administered in the supine position
